From article PMC6660985 (Biopolymers, 2019)

Key:
[1] = system: C. neoformans; details: cited from earlier work
[2] = system: C. neoformans strain H99S; assay: Synergy testing; format: cell-based, Cryptococcus neoformans; details: for MIC: Cryptococcus neoformans, H99S, read-out: MIC-B, Drug Alone; for MIC-B, Combination: Drug B in combination with AEC5, average of three independent experiments; for FIC index (FICi): combination of the labelled Drug B with AEC5 (Drug A); for interaction with AEC5 by FICi: combination of the labelled drug with AEC5; for change of the drug's MIC when combined with AEC5: drop of MIC, combination versus alone

SMILES	time to reduce fungal growth by 50% ([1]; clinical isolates from HIV/AIDS patients)	MIC [2]	MIC-B, Combination [2]	FIC index (FICi) [2]	interaction with AEC5 by FICi [2]	change of the drug's MIC when combined with AEC5 [2]	concentration at which the compound becomes fungicidal ([1]; against C. neoformans, primarily fungistatic below)	time for 50% reduction in fungal growth ([1]; fluconazole against C. neoformans)
C[C@@H]1[C@H](O)[C@@H](C)/C=C/C=C/C=C/C=C/C=C/C=C/C=C/[C@H](O[C@@H]2O[C@H](C)[C@@H](O)[C@H](N)[C@@H]2O)C[C@@H]2O[C@](O)(C[C@@H](O)C[C@@H](O)[C@H](O)CC[C@@H](O)C[C@@H](O)CC(=O)O[C@H]1C)C[C@H](O)[C@H]2C(=O)O [Amphotericin B, amphotericin B]	≥ 10 h	0.0156 µg/mL	0.0156 µg/mL	1.50	indifferent (0.5 ≤ FICi ≤ 4 indifferent)	does not change	–	–
OC(Cn1cncn1)(Cn1cncn1)c1ccc(F)cc1F [Fluconazole, fluconazole]	–	8 µg/mL	2 µg/mL	0.75	indifferent (0.5 ≤ FICi ≤ 4 indifferent)	four-fold	> 8 x MIC	48 to 72 h
Nc1[nH]c(=O)ncc1F [Flucytosine, flucytosine]	–	4 µg/mL	0.25 µg/mL	0.23	synergistic (FICi < 0.5 synergistic)	–	–	–
